Columns and labels:
MCA-205 sarcoma = experiment: Avatar mice: FMT from responder (R) / non-responder (NR) NSCLC patients, MCA-205 tumors; type: in vivo, C57BL/6 mice
Method: FIG. 5A is a schematic of the experimental design of avatar mice experiments. FMT from feces samples from Non-responders (NR) and responders (R) Non-small cell lung cancer (NSCLC) patients were individually performed after 3 days of ATB in SPF C57BI6 mice. Two weeks later, MCA-205 sarcoma cells were inoculated and daily gavage with water or CC were performed in combination with sequential injections of αPD-1 or IsoPD-1 mAb.
FIG. 11A is a graph showing the effect of castalagin (0.85 mg/kg) in the presence or not of anti-PD-1 on tumor growth kinetics in the in the ATB-avatar model after FMT from 1 NR NSCLC patient with daily gavage with castalagin or water in combination with αPD1 mAb or IsoPD-1. Unpaired t-tests were used. Means ±SEM are represented. *p<0.05. […]
Fecal microbiota transplantation (FM7) experiments. FMT was performed as previously published Routy et al. by thawing fecal material from 5 different Non-Small cell lung cancer (NSCLC) patients amenable to immune checkpoint blockers (ICI after appropriate ethics approval at the Centre de recherche du Centre hospitalier de l'Université de Montréal (CRCHUM) in Montreal. Patient records were retrospectively analyzed to identify their response status. Two weeks after FMT, tumor cells were injected subcutaneously and mice were treated with anti-PD-1 mAb or isotype control +/− CC, castalagin or water as described above.

Ruminococcaceae = experiment: qRT-PCR with Ruminococcaceae-specific primers on mouse feces; type: in vivo, mice; conditions: 6 days of oral gavage, vs water
Method: FIG. 9J is a graph showing the effect of castalagin treatment (0 mg/kg, 1/4×, 0.21 mg/kg, 1×, 0.85 mg/kg, and 3×, 2.55 mg/kg) on the amount of Ruminococcaceae in the feces. Real-time PCR was performed on DNA extracted from mouse stools after 6 days of oral gavage with water or castalagin at 0.21 mg/kg, 0.85 mg/kg and 2.55 mg/kg using specific primers for Ruminococcaceae detection in MCA-205-bearing, SPF-reared mice (n=5). *p<0.05, **p<0.01.
FIG. 13 is a graph depicting the results of qPCR assays performed on DNA extracted from mouse stools after 6 days of oral gavage with water or castalagin at 0.85 mg/kg using specific primers for Ruminococcaceae detection in MCA-205—bearing, SPF-reared mice (n=10). *p<0.05,
Genomic DNA extraction from mouse feces. Total genomic DNA from fecal pellets was extracted using ZymoBIOMICS DNA Miniprep Kit (Zymo Research Corporation) and immediately stored at -80° C. This protocol involves a bead beating step to ensure full recovery of bacterial DNA. DNA concentration and quality were measured using the Nanodrop ND-1000 (ThermoFisher).
Quantitative real-time PCR (qRT-PCR). Quantitative real-time PCR was performed to evaluate the relative levels of the total bacterial DNA and the V6 region of the 16S rRNA gene was amplified using the primer set 891F (5′-[…]-3′, SEQ ID NO:1) and 1033R (5′-TGCGGGACTTAACCCAACA-3′, SEQ ID NO:2) (Anhê et al. Diabetologia. 2018 April; 61(4):919-931) and specifically to evaluate the relative levels of the Ruminococcaceae DNA using the specific primers F (5′-[…]-3′, SEQ ID NO:3) and R (5′-[…]-3′, SEQ ID NO:4) (Garcia-Mazcorro JF et al FEMS Microbiol Ecol 2012; 80(3):624-36). DNA (400ng/well) extracted was combined with 500 nM of the above described primer mix and 1× qPCRBIO SyGreen blue Mix Hi-ROX (PCRBIOSystems). The qPCR reaction was performed on the Applied Biosystems StepOnePlus Real-Time PCR System (ThermoFisher Scientific) at 95° C. for 3min to denature DNA, with amplification proceeding for 40 cycles at 95° C. for 5s, 60° C. for 30 s, and completed with a melt curve stage. Raw threshold cycle (Ct) values were compared to a bacterial standard curve produced with Escherichia coli DNA for the 16s analysis and with Ruminoccocus bicirculans for the Rumniccocaceae analysis for approximation of bacterial load.

O=C1OC[C@H]2OC(=O)c3cc(O)c(O)c(O)c3-c3c(O)c(O)c(O)c4c3C(=O)O[C@H]([C@H]3OC(=O)c5c-4c(O)c(O)c(O)c5[C@@H]3O)[C@@H]2OC(=O)c2cc(O)c(O)c(O)c2-c2c1cc(O)c(O)c2O [castalagin, Castalagin]
antitumor activity (tumor growth) (MCA-205 sarcoma; castalagin 0.85 mg/kg + αPD-1, post-FMT from NR NSCLC patients): additive effect when combined with αPD-1 | antitumor activity (tumor growth) (MCA-205 sarcoma; castalagin 0.85 mg/kg alone, post-FMT from NR NSCLC patients, ATB and GF conditions): able to restore antitumor activity | Ruminococcaceae abundance (qRT-PCR) (Ruminococcaceae; 1/4 concentration dose (0.21 mg/kg)): not increase | Ruminococcaceae abundance (qRT-PCR), duplicated experiment (Ruminococcaceae; castalagin 0.85 mg/kg, n=10): increase of Ruminococcaceae | Ruminococcaceae abundance (qRT-PCR) (Ruminococcaceae; standard castalagin dose (0.85 mg/kg)): significantly increased | Ruminococcaceae abundance (qRT-PCR) (Ruminococcaceae; three-fold standard castalagin dose (2.55 mg/kg)): significantly increased

Source: US20230075822A1, “USE OF CASTALAGIN OR ANALOGS THEREOF FOR ANTI-CANCER EFFICACY AND TO INCREASE THE RESPONSE TO IMMUNE CHECKPOINT INHIBITORS” (THE ROYAL INSTITUTION FOR THE ADVANCEMENT OF …, priority 2020, published 2023)
